Some test systems named below: CCRF-CEM leukemia; SW-620 colon; HCT-116 colon; COLO 205 colon; HS 578T breast; MDA-N; M14 melanoma; HCT-15 colon; MDA-MB-435; HOP-92 NSCLC.
Holding throughout (experiment): NCI tumour cell line growth inhibition, 48 h

The values below come from PubChem BioAssay (NCI).

The structures appear in SMILES notation.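 Test compounds were applied to cells in 96-well plates for 48 hours at 5 doses. TGI: concentration producing complete growth inhibition.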

On to `O=[N+]([O-])C(Cl)=C/C(=C(\Cl)SCc1ccccc1)[N+](=O)[O-]`, for which the TGI is 18 µM in the assay on CCRF-CEM leukemia; 59.3 µM in the assay with SW-620 colon; 44.1 µM with HCT-116 colon; 32.3 µM in the assay on COLO 205 colon; over 100 µM with HS 578T breast; 69.8 µM in the assay with MDA-N. Also, the TGI with M14 melanoma was 53.8 µM; in the assay on HCT-15 colon, 35.5 µM; in the assay with MDA-MB-435, 36.3 µM; in the assay on HOP-92 NSCLC, 36.1 µM.
`OC1C[C@H](c2ccccc2)C2(C(O)c3ccccc3C2O)[C@@H](c2ccccc2)C1` (stereo partly drawn): the TGI with CCRF-CEM leukemia, in the assay with SW-620 colon, in the assay on HCT-116 colon, with COLO 205 colon, with HS 578T breast and in the assay on MDA-N was over 100 µM each time. Moreover, the TGI with M14 melanoma, in the assay with HCT-15 colon, with MDA-MB-435 and with HOP-92 NSCLC was over 100 µM in each case.
Take `C=C1C(=O)OC2CC3(C)OC3CC/C(C)=C/C(OC(C)=O)C12` (stereo not drawn): the TGI in the assay on CCRF-CEM leukemia amounted to 12.7 µM; with SW-620 colon, 4.89 µM; in the assay on HCT-116 colon, 14.6 µM; in the assay on COLO 205 colon, 4.03 µM; in the assay with HS 578T breast it was 42.9 µM; in the assay with MDA-N, 18.7 µM. The TGI in the assay with M14 melanoma worked out at 9.86 µM; in the assay on HCT-15 colon it was 19.3 µM; with MDA-MB-435 it was 25.2 µM; in the assay on HOP-92 NSCLC, 4.69 µM.
`[N-]=[N+]=Nc1c([N+](=O)[O-])c(=O)n2c3c(cccc13)CCC2`: the TGI in the assay with CCRF-CEM leukemia is 4.98 µM; with SW-620 colon, 13.9 µM; in the assay with HCT-116 colon, 30.2 µM; with COLO 205 colon, 20.9 µM; in the assay on HS 578T breast, over 77.3 µM; in the assay on MDA-N it was 27.9 µM. Moreover, the TGI with M14 melanoma was found to be 26.2 µM; with HCT-15 colon, 17.8 µM; in the assay on MDA-MB-435 it was 31.2 µM; in the assay with HOP-92 NSCLC it was 30 µM.
Turning to `CC(C)(C)[Si](C)(C)OCC1OC(n2cnc3c(=O)[nH]c(N)nc32)C(O[Si](C)(C)C(C)(C)C)C1O[Si](C)(C)C(C)(C)C` (stereo not drawn), the TGI in the assay on SW-620 colon is over 20.4 µM; with HCT-116 colon it was 2.61 µM; in the assay on COLO 205 colon, 3.2 µM; in the assay on HS 578T breast it was 7.65 µM; in the assay with MDA-N, 3.3 µM; in the assay with M14 melanoma, 2.89 µM. The TGI is over 100 µM in the assay with HCT-15 colon, 2.88 µM in the assay with MDA-MB-435 and 7.37 µM in the assay on HOP-92 NSCLC.
Consider `CSc1scc2c1/C(=N/NC(N)=O)CCC2`, for which the TGI with CCRF-CEM leukemia, in the assay with SW-620 colon, with HCT-116 colon, with COLO 205 colon, in the assay on HS 578T breast and in the assay with MDA-N was over 100 µM each time. For the same compound, the TGI in the assay on M14 melanoma is over 100 µM; in the assay with HCT-15 colon, over 100 µM; with MDA-MB-435, over 100 µM; in the assay on HOP-92 NSCLC it was 90 µM.
In the case of `c1ccc(CN2CCN3CCN(CC2)CCN(Cc2ccccc2)CC3)cc1`, the TGI in the assay on CCRF-CEM leukemia is 26.1 µM; with SW-620 colon, 63.3 µM; in the assay with HCT-116 colon, 16.4 µM; with COLO 205 colon it was 5.06 µM; with HS 578T breast it was 35.5 µM; in the assay with MDA-N it was 12.2 µM. Also, the TGI in the assay on M14 melanoma is 19.6 µM; in the assay with HCT-15 colon it was over 88.8 µM; with MDA-MB-435, 12.6 µM; in the assay on HOP-92 NSCLC, 21.9 µM.
As to `NC(N)=NCCCC(NC(=O)OCCCCn1ccc(N)nc1=O)C(=O)O` (stereo not drawn), the TGI in the assay with CCRF-CEM leukemia, in the assay on SW-620 colon, in the assay with HCT-116 colon, in the assay with COLO 205 colon, in the assay with HS 578T breast and in the assay with MDA-N was over 100 µM in each case. In addition, the TGI in the assay on M14 melanoma, with HCT-15 colon, in the assay with MDA-MB-435 and in the assay on HOP-92 NSCLC was over 100 µM in each case.
On to `[N-]=[N+]=C(C(=O)N1CCCC1=O)S(=O)(=O)c1ccccc1`, for which the TGI in the assay with CCRF-CEM leukemia, in the assay on SW-620 colon, in the assay on HCT-116 colon, in the assay with COLO 205 colon, in the assay with HS 578T breast and with MDA-N was over 100 µM each time. Besides, the TGI in the assay with M14 melanoma, in the assay with HCT-15 colon and with MDA-MB-435 was over 100 µM each time.
Turning to `C=C(c1ccccc1)c1ccccc1-c1cc(-c2ccccc2)cc(-c2ccccc2)n1`, the TGI with CCRF-CEM leukemia, in the assay with SW-620 colon, in the assay with HCT-116 colon, with HS 578T breast, with MDA-N and in the assay with M14 melanoma was over 100 µM throughout. For the same compound, the TGI in the assay on HCT-15 colon, in the assay with MDA-MB-435 and in the assay on HOP-92 NSCLC was over 100 µM in each case.
With `O=C(CSc1nc2ccccc2c(=O)n1-c1ccccc1)N=Nc1c(O)[nH]c2ccc(F)cc12`, the TGI with CCRF-CEM leukemia was 5.04 µM; in the assay with SW-620 colon it was 15.2 µM; in the assay with HCT-116 colon it was 4.46 µM; in the assay with COLO 205 colon, 5.73 µM; with HS 578T breast, over 100 µM; in the assay with MDA-N, 14 µM. Further, the TGI is 4.57 µM in the assay on M14 melanoma, over 100 µM with MDA-MB-435 and 4.17 µM in the assay with HOP-92 NSCLC.
With `COC(=O)c1c(O)ccc2c1c1c(n2Cc2ccccc2)C(=O)c2ccccc2C1`, the TGI is 65.8 µM in the assay with CCRF-CEM leukemia; over 100 µM in the assay with SW-620 colon; over 100 µM in the assay with HCT-116 colon; 28.9 µM with COLO 205 colon; over 100 µM in the assay with HS 578T breast; over 100 µM in the assay on MDA-N. Moreover, the TGI in the assay with M14 melanoma, in the assay with HCT-15 colon and in the assay with MDA-MB-435 was over 100 µM each time.
`Cc1ccc(-n2cc([Si](C)(C)C)nn2)s1`: the TGI in the assay with SW-620 colon, in the assay on HCT-116 colon, in the assay on COLO 205 colon, in the assay with HS 578T breast, in the assay with MDA-N and in the assay on M14 melanoma was over 100 µM in each case. Also, the TGI with HCT-15 colon, with MDA-MB-435 and with HOP-92 NSCLC was over 100 µM each time.
In the case of `CN1CCN(C2=CC(=O)c3c(O)ccc(O)c3C2=O)CC1`, the TGI in the assay with CCRF-CEM leukemia worked out at 3.03 µM; with SW-620 colon, 1.89 µM; in the assay on HCT-116 colon it was 0.578 µM; with COLO 205 colon it was 0.31 µM; with HS 578T breast, 4.1 µM; in the assay with MDA-N, 0.325 µM. Further, the TGI with M14 melanoma stood at 1.94 µM; in the assay with MDA-MB-435, 0.332 µM; in the assay on HOP-92 NSCLC it was 3.29 µM.
